# Patent EP0540859B1, “Anthracycline prodrugs” (Bristol-Myers Squibb Company, priority 1987, dated 1989)
# Where two headings read alike, the source gives them in different places.
# Assays:
# [1] = test system: H2981 tumor cells; experiment: 3H-thymidine uptake assay on H2981 cells, PVA conjugates with APO; assay type: cell-based; details: Homo sapiens; H2981 cells untreated with any conjugate
# Experimental: The in vitro cytotoxic effect of the antibody-PVA/ adriamycin prodrug combination of the invention toward H2981 tumor cells was measured using the ^3H-thymidine uptake assay described in Examples 1 and 2 above. Briefly, the H2981 tumor cells were plated into 96-well microtiter plates in IMDM (10,000 cells/well) and were allowed to attached for 18 h at 37°C. The antibody-PVA conjugates, L6-PVA or 1F5-PVA, were then added at a concentration of 10 µg/ml of antibody and the plates were incubated for 30 min at 4°C. The wells were then washed four times with IMDM and APO was added at varying concentrations in IMDM. After two h, the wells were again washed, IMDM was added and the cells were left for 18 h at 37°C. At that point, ^3H-thymidine was added (1 µCi per well) and after 6 h, the plates were frozen at -70°C to detach the cells. After thawing, the cells were harvested onto glass fiber filters. The incorporation of ^3H-thymidine was measured in a Beckman 3801 scintillation counter and compared to cells treated with APO or adriamycin (ADM) alone.
# [2] = test system: penicillin V amidase; experiment: Hydrolysis of APO to adriamycin by PVA or L6-PVA conjugate (HPLC); assay type: biochemical, Fusarium oxysporum
# Experimental: The ability of the antibody-PVA conjugate, L6-PVA, to convert the novel prodrug, APO, to adriamycin was measured as follows: either a) PVA alone (final concentration:50 µg/ml), b) 100 µg/ml of the L6-PVA conjugate (final PVA concentration: 25 µg/ml) or c) 10 µg/ml of L6-PVA (final PVA concentration: 2.5 µg/ml) were added to a solution of APO (0.1 mM) in PBS. Each reaction was monitored by HPLC using a Phenominex C-18 column (3 µm, 4.5 x 100 mm) and a gradient elution of 20-60% tetrahydrofuran in water with 0.1% H3PO4 (1.0 ml/min, monitored at 495 nm). Under these conditions, the adriamycin eluted at 8.9 minutes and the APO eluted at 12.2 minutes.
# [3] = test system: H3347 tumor cells; experiment: Clonogenic cytotoxicity (colony inhibition) assay; assay type: cell-based; details: Homo sapiens, 15 hours drug exposure, colonies counted 7-10 days later
# Experimental: The clonogenic cytotoxicity assay we used was the colony inhibition assay described by I. Hellstrom et al., "Colony Inhibition And Cytotoxicity Assays," in In Vitro Methods In Cell-Mediated Immunity, Bloom and Glade (ed.s), pp.- 409-14 (1971). The cells used to detect cytotoxicity were the H3347 tumor cells described above. Both the L6-AP and 96.5-AP conjugates were tested for their ability to convert prodrug into the free drug.
# Briefly, the H3347 cells (10^6/ml) were suspended in IMDM growth media (containing 10 µg/ml of each immunoconjugate based on antibody concentration) and incubated for 30 min at 37°C. The cells were washed twice, resuspended in IMDM, and the drug or prodrug in medium was added. Incubation at 37°C was continued for 15 hours. After washing twice, the cells were plated out and the number of colonies (>8 cells/colony) were counted 7-10 days later.
# [4] = Stability of aqueous solutions of etoposide prodrugs; assay type: physicochemical
# Experimental: For example, either AP alone or the antibody-enzyme conjugate, L6-AP, produced as described above (final AP concentration 5 µg/ml) were added to a solution of etoposide-4'-phosphate (0.1 mM) in Tris buffer (100 mM) containing MgCl2 (1 mM) and ZnCl2 (0.1 mM) at pH 7.0. The reaction was monitored by HPLC using an IBM C-18 column (3 µ, 4.5 x 100 mm) and 50% aqueous methanol as eluant (0.5 ml/min, monitored at 254 nm). […] Aqueous solutions of etoposide phosphate or etoposide thiophosphate were stable for at least 8 hours at room temperature and for several days at 4°C.
# [5] = test system: H3347 tumors; experiment: In vivo antitumor effect, conjugate/etoposide phosphate, s.c. H3347 tumors; design: species or system nude mice; details: for antitumor effect on tumor growth: Figure 11, conjugates i.p. 18-24 h prior to EP; for tolerability in the animals: nude mice, maximum tolerated doses; for RESPONSE complete / RESPONSE partial / RESPONSE progression / RESPONSE stable: number of 16 tumors in each group, 23 days after tumor implant
# Experimental: First, Balb/C nu/nu female mice (4-6 wk old) (obtained from Life Sciences, St. Petersburg, Florida) were injected with 10^7 H3347 tumor cells subcutaneously (s.c.) in the left and right hind flanks. The tumor cells were obtained from in vitro cultures that had been suspended by treatment for 2 min with trypsin (0.5 g/l) and EDTA (0.2 g/l). The cells were washed twice with IMDM and incubated for 1 h at 37°C in IMDM with 10% fetal calf serum. The cells were washed, suspended in PBS, and kept at 4°C prior to injection. Both the localization and therapy studies described herein were initiated when the tumors reached an average size of 225 mm^3.
# Therapy experiments were performed on nude mice that had s.c. tumors approximately 225 mm^3 in volume. The conjugates, L6-AP and 1F5-AP, were administered (i.p.) 18-24 h prior to treatment with EP. Tumor growth was compared to that in untreated mice and in mice treated with maximum tolerated doses of etoposide or EP alone.
# More particularly, a group of 8 nude mice with bilateral H3347 tumors was treated with either etoposide (0.2 ml containing 1.2 mg etoposide in 2:3 DMSO:H2O) or EP (0.2 ml containing 2 mg EP in H2O) alone or with L6-AP (0.1 ml containing 300 µg antibody in PBS) or 1F5-AP (0.1 ml containing 300 µg antibody in PBS) followed by EP treatment Each experiment contained a control group of mice that was untreated. Tumor volumes were estimated at various days post tumor implant, using the formula: ([(perpendicular width)^2 /2)] X longest length [formula]
# [6] = test system: H3347 tumor cells; experiment: 3H-thymidine uptake assay on H3347 cells; assay type: cell-based, human
# [7] = test system: Alkaline phosphatase; experiment: Hydrolysis of etoposide phosphate prodrugs by AP or L6-AP conjugate (HPLC); details: for hydrolysis by alkaline phosphatase, relative rate: Figure 5
# [8] = test system: H2981 tumor cells
# [9] = test system: H2981 tumor; experiment: In vivo antitumor effect, conjugate/mitomycin prodrug and MOP/EP combinations, s.c. H2981 tumor; design: species or system nude Balb C nu/nu female mice; details: for antitumor activity in vivo: Figures 18 and 19, conjugates 18-24 h prior to prodrug; for time required to reach an average tumor volume of 750 mm^3: H2981 tumor, maximum tolerated doses
# Experimental: Therapy studies were then performed on nude Balb C nu/nu female mice (6 mice per treatment group) (4-6 wk old) obtained from Life Sciences (St. Petersburg, Fla.) that had been implanted (s.c., right hind flank) with a H2981 tumor obtained from in vivo sourcing. The experiments were run when the tumors reached approximately 100 mm^3 in volume. The L6-AP and 1F5-AP conjugates (0.1 ml containing 250 µg antibody in PBS) were each administered (i.p.) 18-24 h prior to treatment with MOP (0.2 ml containing 0.6 mg MOP in H2O). Tumor growth was compared to that observed in untreated mice and in mice treated with maximum tolerated doses of MOP (0.2 ml containing 0.6 mg MOP in H2O) or MOH (0.2 ml containing 0.2 mg MOH in H2O) alone.
# The prodrugs, EP and MOP, were prepared as described in Examples 1 and 2, respectively. Preparation of the L6-AP and 1F5-AP immunoconjugates is described in Example 1. The in vivo studies on nude mice were carried out as described in Examples 1 and 2 above. Thus, nude mice that had been implanted with a H2981 tumor were pre-exposed to the L6-AP or 1F5-AP conjugate 18-24 h prior to treatment with a combination of MOP/EP (0.2 ml containing 1 mg EP and 0.3 mg MOP in H2O). Tumor growth was compared to that observed in untreated mice and in mice treated with the MOP/EP combination alone.
# [10] = Relative toxicities of MOH and MOP in mice; design: species or system Balb C nu/nu mice; details: mouse, in vivo, ip; for LD50: two equal doses spaced 4 days apart; for MTD: given in 4 equal doses over a 25 day period, read-out: total amounts well tolerated
# Experimental: Prior to investigating the in vivo antitumor activity of MOP in combination with the L6-AP conjugate the relative toxicities of the prodrug and its released active derivative, MOH, were determined in Balb C nu/nu mice. […] Total amounts of up to 40 mg/kg of MOH and 100 mg/kg of MOP were well tolerated if given in 4 equal doses over a 25 day period.
# [11] = test system: H2981 tumor cells; experiment: cells; details: Homo sapiens
# [12] = test system: calf intestinal or human placental AP; experiment: Reactivity of MOP with AP (HPLC); assay type: biochemical; details: MOP 1 mM, AP 1 µg/ml, 100 mM Tris pH 7.2, room temperature
# Experimental: The MOP prodrug was then tested for its reactivity with AP. […] The course of the reaction was monitored by HPLC using a C-18 column (4.6 x 150 mm) and the following conditions: detection at 280 nm; 30-95% methanol in acetate buffer (100 mM, pH 5.2) over 8 min, re-equilibration after 15 min; 0.8 ml/min flow rate. Under these conditions, MMC eluted at 7.0 min, MOH eluted at 8.5 min, and MOP eluted 4.0 min. […] HPLC served to confirm that the corresponding alcohol, MOH, was formed. Under the reaction conditions used, the half life for hydrolysis of MOP was about 10 min and the reaction went to completion within 40 min.
# [13] = by day 63, mitomycin derivatives (Table 3)
compound,measurement,setting,value
"COc1cccc2c1C(=O)c1c(O)c3c(c(O)c1C2=O)C[C@@](O)(C(=O)CO)C[C@@H]3O[C@H]1C[C@H](NC(=O)COc2ccc(O)cc2)[C@H](O)[C@H](C)O1 [APO, N-(p-hydroxyphenoxyacetyl)adriamycin]",IC50,[1],2000 nM
same,time to effect this level of hydrolysis (at least 80%),[2]; L6-PVA conjugate at 10 µg/ml (2.5 µg/ml of PVA),120 min
same,hydrolysis of APO to adriamycin,"[2]; within 40 minutes, PVA alone 50 µg/ml or L6-PVA conjugate 100 µg/ml",at least 80%
"COc1cc(C2c3cc4c(cc3C(OC3OC5COC(C)OC5C(O)C3O)C3COC(=O)C23)OCO4)cc(OC)c1OP(=O)(O)O (stereo not drawn) [EP, 4'-disodium phosphate ester of etoposide]",IC50,[3],5800 nM
same,stability of aqueous solutions,[4]; 4°C,several days
same,stability of aqueous solutions,[4]; room temperature,at least 8 hours
same,antitumor effect on tumor growth,[5],greater antitumor effect than seen with etoposide itself
same,tolerability in the animals,[5],less toxic to the animals
same,RESPONSE complete,[5],0
same,RESPONSE partial,[5],0
same,RESPONSE progression,[5],6
same,RESPONSE stable,[5],10
same,inhibition at 100 µM,"[6]; Homo sapiens, at 100 µM",35%
same,"hydrolysis by alkaline phosphatase, relative rate",[7],hydrolyzed by the enzyme more rapidly than the etoposide thiophosphate prodrug
same,phosphate hydrolysis in the absence of enzyme,"[7]; Tris buffer pH 7.0, no enzyme",no phosphate hydrolysis occurred
same,hydrolysis of the etoposide-4'-phosphate to etoposide,"[7]; within 5 min of the start, AP free or as L6-AP conjugate, final AP concentration 5 µg/ml, prodrug 0.1 mM, pH 7.0",at least 85 X
same,kill,"[8]; human, h2981 cells, 30 µM",20%
"CO[C@@]12[C@H](COC(N)=O)C3=C(C(=O)C(C)=C(N)C3=O)N1C[C@@H]1N[C@@H]12 [MMC, mitomycin C, reference compound]",IC50,[8],~1000 nM
"CO[C@@]12[C@H](COC(N)=O)C3=C(C(=O)C(C)=C(NCCO)C3=O)N1C[C@@H]1N[C@@H]12 [MOH, 7-[(2-hydroxyethyl)amino]-9a-methoxymitosane, reference compound]",antitumor activity in vivo,[9],significant antitumor activities in vivo
same,time required to reach an average tumor volume of 750 mm^3,[9],45 days
same,TUMOR RESPONSES PROGRESSION,[9]; [13],6/6
same,LD50,[10],45 mg/kg
same,MTD,[10],≥ 40 mg/kg
same,IC50,[11],~1000 nM
"CO[C@@]12[C@H](COC(N)=O)C3=C(C(=O)C(C)=C(NCCOP(=O)(O)O)C3=O)N1C[C@@H]1N[C@@H]12 [MOP, 7-(2'-aminoethyl phosphate)mitomycin]",antitumor activity in vivo,[9],significant antitumor activities in vivo
same,time required to reach an average tumor volume of 750 mm^3,[9],63 days
same,TUMOR RESPONSES PROGRESSION,[9]; [13],4/5
same,TUMOR RESPONSES STABLE,[9]; [13],1/5
same,LD50,[10],90 mg/kg
same,MTD,[10],≤ 100 mg/kg
same,cell kill,"[8]; at 10 µM, H2981 cells",5%
same,time for the reaction to go to completion,[12],≤ 40 min
"COc1cc(C2c3cc4c(cc3C(OC3OC5COC(C)OC5C(O)C3O)C3COC(=O)C23)OCO4)cc(OC)c1OP(O)(O)=S (stereo not drawn) [etoposide thiophosphate, 4'-disodium thiophosphate ester of etoposide]",stability of aqueous solutions,[4]; 4°C,several days
same,stability of aqueous solutions,[4]; room temperature,at least 8 hours
same,"hydrolysis by alkaline phosphatase, relative rate",[7],increased stability towards hydrolysis
"COc1cc([C@@H]2c3cc4c(cc3[C@@H](O[C@@H]3O[C@@H]5CO[C@@H](C)O[C@H]5[C@H](O)[C@H]3O)[C@H]3COC(=O)[C@H]23)OCO4)cc(OC)c1O [etoposide, reference compound]",IC50,[3],200 nM
same,IC50,[11],2000 nM
same,antitumor effect on tumor growth,[5],very little effect on tumor growth
same,tolerability in the animals,[5],higher doses were not well tolerated
same,RESPONSE complete,[5],0
same,RESPONSE partial,[5],0
same,RESPONSE progression,[5],12
same,RESPONSE stable,[5],4
same,toxicity relative to EP,[6],more than 100 fold
same,IC50,"[6]; Homo sapiens, 6 h drug exposure",1000 nM
